{"source": "patent US12385042B2", "about": "“Cell-penetrating peptides” (VECTIOPEP OÜ, priority 2019, dated 2025)", "key": {"[1]": {"tested_on": "U87 MG-luc2 human glioma cells, stably expressing luc2", "test": "Luciferase gene downregulation by CPP/siRNA (siLuc2) complexes", "type": "cell-based", "in_short": "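U87-luc2 cells in serum-containing medium got peptide/siLuc2 complexes formed in water (pH 5.3-6.3, MR 40:1, 1 h RT) at 25 nM siRNA for 4 h at 37 °C, then 20 h more. Lysate luminescence normalized to protein; in other runs, MR30/10 nM in HEPES-FBS, or varied MR at 50 nM, vs untreated (100%).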"}, "[2]": {"tested_on": "CHO stably expressing green fluorescent protein (GFP)", "test": "GFP gene downregulation by CPP/siGFP complexes (lysate fluorescence, FACS, confocal)", "type": "cell-based", "protocol": "For assessing the siRNA mediated RNAi, CHO-GFP or U87-luc2 cells (5×10^5 cells per well) were seeded on a 24-well plate a day prior to the experiment and grown in serum containing media. On experiment day, prior to adding pre-formed complexes ( 1/10th of the final volume per well), media was replaced with fresh serum containing medium.\nFor complex formation, peptide was mixed with luc2 siRNA (sense 5′-[…]-3′ (SEQ ID NO:7), antisense 5′-[…] 3′ (SEQ ID NO:8), Metabion, Germany) or with siRNA against GFP (5′-[…] (SEQ ID NO:9), 3′-[…] (SEQ ID NO:10)) in mQ water (pH 5.3-6.3) using peptide to siRNA molar ratios (MR is the ratio of peptide to siRNA) […] and incubated at RT for 1 h. For siLuc2, the final concentration in media was 25 nM and for siGFP 100 nM. Cells were co-incubated with complexes for 4 h (37° C., 5% CO2), thereafter fresh serum containing media was added and followed by further incubation (20 h for siLuc2 or 44 h for siGFP complexes). Luciferase gene downregulation was measured from cell lysates with Promega luciferase assay system (Promega, Sweden) in combination with GLOMAX 96 microplate luminometer equipped with GLOMAX 1.9.2 software (Promega). GFP was measured after treatment from cell lysates on black 96-well plates by measuring total fluorescence (Symergy MX, BioTek Instruments, USA equipped with Gen5 1.10 software). The results were normalized to the protein content of each sample (DC Protein Assay, BioRad, USA).\nFor flow cytometry analysis (FACS) analysis CHO-GFP cells were seeded and treated as described previously. After incubation, cells were washed with 1× PBS and detached from plates with trypsin-EDTA (0.25%), and re-suspended in PBS supplemented with FBS (5%) and transferred to transparent U-bottom 96-well plates. FACS was carried out with BD LSR II flow cytometer (BD Biosciences, San Jose, CA, USA) equipped with a 488 nm argon laser. Population of viable cells was determined from scatter plot: forward scattered plot (FSC) vs. side scattered light (SSC) plot. A minimum of 10,000 events from the viable cell population per sample were analyzed using BD FACS Diva software. Results are shown as the population with GFP signal lower than that of 0.1% of untreated cells.\nFor confocal microscopy 2×10^5 cells per chamber were seeded on NUNC 8-chamber plates. After treatment with complexes (25 ul of pre-formed CPP/siRNA complexes added to cells in 225 ul serum containing media), incubated (48 h) and GFP florescence images of cells were captured using confocal microscope Zeiss LSM 710 and excitation at 488 nm (493-616 filter)."}, "[3]": {"test": "Fluorescent dye (PicoGreen) intercalation and heparin displacement assay of CPP/siRNA complexes", "type": "physicochemical", "protocol": "Complexation of siRNA and CPPs was assessed by Quant-iT™ PicoGreen® (PG) (Thermo Fisher Scientific, USA) assay in mQ water. Complexes were prepared as described previously, following addition of diluted PG. For detection, complexes (⅕ of volume), water (3/5) and PG (1/5) working dilution was incubated for 5 minutes and fluorescence was measured by fluorimeter (λex=492 nm, λem=535 nm) (SynergyMx, BioTek). For heparin displacement, instead of water, heparin salt solution at different concentrations were used and complexes incubated at 37° C. for 30 min before addition of PG dilution. Complex formation was also confirmed by gel electrophoresis (details in section 2.11)."}, "[4]": {"tested_on": "U87 cells", "test": "MTS toxicity assay", "type": "cell-based, human", "protocol": "Cell proliferation was determined with the CellTiter 96® Aqueous Non-Radioactive Cell Proliferation Assay (MTS) (Promega Biotech AB, Sweden) according to the manufacturer's instructions. For this 1×10^5 U87 cells were seeded 1 day prior to experiment on transparent 96-well plates. On experiment day, media was replaced with 90 ul of fresh media and to the cells complexes formed at MR30 (both with 25 nM and 100 nM final siRNA concentrations) or free peptide at the range of 0.5-4 uM final concentrations were added. Cells were treated with complexes for 20 h. MTS was added according to the manufacturer's protocol. The absorbance of formazan product was measured at 490 nm with Tecan Sunrise microplate absorbance reader (Tecan Group Ltd, Switzerland) and percentage of viable cells was calculated using GraphPad Prism software 5.0 (Graphpad Software, CA, USA)."}}, "note": "Where a SMILES comes first, the peptide text is derived from it. Bridges are numbered along the chain shown (N, C = ends). Roman numbers before positions name the chains, in order. [ ]: non-standard residue; d: D form. The star is where a group is joined. Stearoyl = CCCCCCCCCCCCCCCCCC(=O)*; Orn = NCCC[C@H](N)C(=O)O", "data": [{"smiles": "CCCCCCCCCCCCCCCCCC(=O)N[C@@H](Cc1c[nH]cn1)C(=O)N[C@@H](Cc1c[nH]cn1)C(=O)N[C@@H](Cc1c[nH]cn1)C(=O)N[C@@H](Cc1c[nH]cn1)C(=O)N[C@@H](Cc1c[nH]cn1)C(=O)N[C@@H](Cc1c[nH]cn1)C(=O)NCC(=O)NCCC[C@H](N)C(=O)N[C@H](C(=O)N[C@@H](CC(C)C)C(=O)N[C@@H](CC(C)C)C(=O)N[C@@H](CCCCN)C(=O)N[C@@H](C)C(=O)N[C@@H](CC(C)C)C(=O)N[C@@H](CCCCN)C(=O)N[C@@H](C)C(=O)N[C@@H](CC(C)C)C(=O)N[C@@H](C)C(=O)N[C@@H](CCCCN)C(=O)N[C@@H](C)C(=O)N[C@H](C(=O)N[C@@H](CC(C)C)C(N)=O)[C@@H](C)CC)[C@@H](C)CC", "note": "[NF704] (I: H-[Orn]ILLKALKALAKAIL-NH2 / II: Stearoyl-HHHHHHG; amide I:1-II:C)", "values": [{"measurement": "Red (%) (reduction, based on remaining luminescence on U87 cells post-treatment)", "setting": "[1]; CPP/siRNA complexes, siRNA against luciferase", "value": 82, "unit": "%"}, {"measurement": "remaining reporter activity", "setting": "[1]; molar ratio 30 (MR30, peptide to siRNA), untreated cells 100%", "value": 19, "unit": "%"}, {"measurement": "cells with downregulated reporter gene (GFP signal below threshold), FACS", "setting": "[2]; CHO-GFP, CPP/siGFP complexes", "value": 40, "unit": "%"}, {"measurement": "downregulation of GFP (average, cell lysate fluorescence)", "setting": "[2]; siGFP 100 nM", "value": "lower efficiency than H6-C20"}, {"measurement": "accessibility of siRNA in complexes (dye intercalation)", "setting": "[3]; MR30, no heparin", "value": "low accessibility of siRNA"}, {"measurement": "stability of complexes to heparin displacement (in words)", "setting": "[3]; complexes pre-formed at MR30", "value": "not as resistant to heparin displacement as H6^1-C20"}, {"measurement": "concentration at which free peptide is toxic to cells (MTS)", "setting": "[4]", "value": 10, "unit": "µM"}]}]}
